Experimental data from ChEMBL document CHEMBL5137082, “Discovery of a Novel Vascular Disrupting Agent Inhibiting Tubulin Polymerization and HDACs with Potent Antitumor Effects” (J Med Chem, 2022).
pIC50: −log10 of the molar value. Active and inactive are the calls of the source. No cut-off for these calls is given here.

Columns and labels:
PC-3 [1] = assay: Induction of apoptosis in human PC-3 cells assessed as mitochondrial membrane potential loss by measuring decrease in red fluorescence at 30 nM incubated for 48 hrs by JC1 staining based flow cytometry analysis (reference value: 93.48 +/- 0.15%); format: functional; parameters: scale not given: the % may be the effect or the level left
HepG2 [2] = assay: Induction of apoptosis in human HepG2 cells assessed as downregulation of Bcl-xL protein expression measured after 24 hrs by Western blot analysis; format: functional, cell-based; conditions: dose 7.5-30 nM, DDE = dose-dependent effect
Tubulin (Homo sapiens) [3] = molecular target: T1, Tubulin (Homo sapiens) (UniProt P68371+Q9H4B7+P0DPH7+P68366+Q13509+Q71U36+P04350+Q3ZCM7+P07437+P68363+Q9BQE3+Q6PEY2+Q13885+Q9BVA1+Q9BUF5); assay: Inhibition of [3H]Colchicine binding to tubulin (unknown origin) at 5 uM measured after 2 hrs by scintillation counting method relative to control; format: protein-complex assay
HepG2 [4] = assay: Induction of apoptosis in human HepG2 cells assessed as necrotic cells at 15 nM incubated for 48 hrs by Annexin-V/PI-staining based flow cytometry (reference value: 1.43 +/- 0.26%); format: functional
HepG2 [5] = assay: Antiproliferative activity against human HepG2 cells assessed as inhibition of cell growth measured after 72 hrs by MTT assay; format: functional, cell-based; conditions: HepG2, 72 h
Tubulin (Homo sapiens) [6] = molecular target: T1, Tubulin (Homo sapiens); assay: Induction of microtubule disruption in human HepG2 cells assessed as loss of cellular structure at 7.5 to 30 nM measured after 2 hrs by DAPI staining based immunofluorescence microscopic assay; format: cell-based; conditions: dose 7.5-30 nM
[7] = Metabolic stability in mouse liver microsomes assessed as metabolic bioavailability at 1 uM in presence of NADPH measured up to 60 mins by LC-MS/MS analysis; format: ADME, Microsome
MDA-MB-231 [8] = assay: Inhibition of cell migration in human MDA-MB-231 cells measured after 48 hrs by crystal violet staining based transwell assay; format: functional; conditions: dose 7.5-30 nM, DDE = dose-dependent effect
Histone deacetylase 3 = Histone deacetylase 3 (Homo sapiens, UniProt O15379); assay: Inhibition of HDAC3 in human HeLa cells using BOC-K(Ac)-AMC as substrate measured after 30 mins by fluorescence based microtiter plate reader assay; format: cell-based
Sequence of Histone deacetylase 3 (O15379 whole entry): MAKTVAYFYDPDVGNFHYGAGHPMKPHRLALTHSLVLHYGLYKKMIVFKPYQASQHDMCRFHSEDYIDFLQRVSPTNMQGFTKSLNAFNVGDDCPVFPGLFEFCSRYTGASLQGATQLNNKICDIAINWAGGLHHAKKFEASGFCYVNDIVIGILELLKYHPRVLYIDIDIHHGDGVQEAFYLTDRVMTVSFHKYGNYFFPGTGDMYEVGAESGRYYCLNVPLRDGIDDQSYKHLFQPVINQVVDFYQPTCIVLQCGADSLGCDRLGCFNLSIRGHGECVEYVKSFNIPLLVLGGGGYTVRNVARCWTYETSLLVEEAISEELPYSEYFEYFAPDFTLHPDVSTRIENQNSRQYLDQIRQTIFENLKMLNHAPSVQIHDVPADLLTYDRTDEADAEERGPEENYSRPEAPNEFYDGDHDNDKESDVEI

HepG2 [9] = assay: Induction of apoptosis in human HepG2 cells assessed as late apoptotic cells at 7.5 nM incubated for 48 hrs by Annexin-V/PI-staining based flow cytometry (reference value: 2.53 +/- 0.34%); format: functional
[10] = Cardiotoxicity in ICR mouse allografted with mouse H22 cells assessed as effect on P wave at 20 mg/kg, iv administered qd measured after 21 days by ECG analysis; format: toxicity, organism-based; conditions: in vivo, 504 h, time 21 day
[11] = Metabolic stability in mouse plasma assessed as compound remaining at 40 uM measured after 5 hrs by LC-MS/MS analysis (reference value: 100%); format: ADME, cell-free
Histone deacetylase 2 = Histone deacetylase 2 (Homo sapiens, UniProt Q92769); assay: Inhibition of HDAC2 in human HeLa cells using BOC-K(Ac)-AMC as substrate measured after 30 mins by fluorescence based microtiter plate reader assay; format: cell-based
Sequence of Histone deacetylase 2 (Q92769 whole entry): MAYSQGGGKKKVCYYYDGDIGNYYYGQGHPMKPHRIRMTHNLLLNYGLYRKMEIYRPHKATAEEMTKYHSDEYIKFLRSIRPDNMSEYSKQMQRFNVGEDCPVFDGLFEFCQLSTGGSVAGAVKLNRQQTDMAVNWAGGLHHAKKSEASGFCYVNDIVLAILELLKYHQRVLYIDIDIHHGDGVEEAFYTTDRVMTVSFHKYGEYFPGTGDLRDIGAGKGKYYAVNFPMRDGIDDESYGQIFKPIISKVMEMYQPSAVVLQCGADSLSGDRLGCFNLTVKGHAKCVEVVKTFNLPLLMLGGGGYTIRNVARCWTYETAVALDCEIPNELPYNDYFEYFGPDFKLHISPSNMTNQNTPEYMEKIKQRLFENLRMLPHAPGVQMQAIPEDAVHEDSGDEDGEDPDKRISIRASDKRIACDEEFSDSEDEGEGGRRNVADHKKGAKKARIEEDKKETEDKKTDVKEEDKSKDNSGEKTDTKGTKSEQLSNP

PC-3 [12] = assay: Induction of apoptosis in human PC-3 cells assessed as mitochondrial membrane potential loss by measuring decrease in […] fluorescence at 7.5 nM incubated for 48 hrs by JC1 staining based flow cytometry analysis (reference value: 93.48 +/- 0.15%); format: functional; parameters: scale not given: the % may be the effect or the level left
[13] = Metabolic stability in mouse assessed as hepatic clearance; format: ADME; conditions: 1 h, 1 µM, time < 60 min
HepG2 [14] = assay: Induction of cell cycle arrest in human HepG2 cells assessed as accumulation G2 phase at 30 nM incubated for 48 hrs by propidium iodide staining based flow cytometry analysis (reference value: 23.55 +/- 0.29%); format: functional
Histone deacetylase 1 = Histone deacetylase 1 (Homo sapiens, UniProt Q13547); assay: Inhibition of HDAC1 in human HepG2 cells assessed as increase in level of acetyl histone H3substrate incubated for 24 hrs by chemiluminescence based Western blotting analysis; format: cell-based; conditions: dose 0.03-0.3 µM
Sequence of Histone deacetylase 1 (Q13547 whole entry): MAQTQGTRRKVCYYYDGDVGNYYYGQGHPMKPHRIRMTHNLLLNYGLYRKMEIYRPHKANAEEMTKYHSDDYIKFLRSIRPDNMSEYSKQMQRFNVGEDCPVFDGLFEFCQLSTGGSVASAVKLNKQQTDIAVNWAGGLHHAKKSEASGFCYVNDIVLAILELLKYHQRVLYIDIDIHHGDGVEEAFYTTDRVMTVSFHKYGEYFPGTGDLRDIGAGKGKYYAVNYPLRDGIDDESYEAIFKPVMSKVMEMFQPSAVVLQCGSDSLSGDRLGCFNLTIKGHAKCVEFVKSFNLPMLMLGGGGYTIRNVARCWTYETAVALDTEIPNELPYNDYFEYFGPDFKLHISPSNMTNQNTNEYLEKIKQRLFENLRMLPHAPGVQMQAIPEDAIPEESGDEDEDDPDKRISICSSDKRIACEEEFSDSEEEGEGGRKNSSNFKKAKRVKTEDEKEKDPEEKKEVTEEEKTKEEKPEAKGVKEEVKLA

H22 [15] = assay: Antiproliferative activity against mouse H22 cells assessed as inhibition of cell growth measured after 72 hrs by MTT assay; format: functional, cell-based; conditions: H22, 72 h
H22 [16] = assay: Antitumor activity against mouse H22 cells allografted in ICR mouse assessed as reduction in tumor weight at 20 mg/kg, iv administered qd measured after 21 days; format: functional; parameters: scale not given: the % may be the effect or the level left; conditions: time 21 day
[17] = Toxicity in ICR mouse allografted with mouse H22 cells assessed as effect on body weight at 20 mg/kg, iv administered qd measured after 21 days; format: organism-based; conditions: in vivo, 504 h, time 21 day
H22 [18] = assay: Antivascular activity against mouse H22 cells allografted in ICR mouse assessed as reduction in tumor microvessel density by measuring CD31-positive cells at 20 mg/kg, iv administered qd measured after 21 days by immunohistochemistry analysis; format: functional, organism-based; conditions: time 21.0 day
HepG2 [19] = assay: Induction of apoptosis in human HepG2 cells assessed as late apoptotic cells at 15 nM incubated for 48 hrs by Annexin-V/PI-staining based flow cytometry (reference value: 2.53 +/- 0.34%); format: functional
HepG2 [20] = assay: Induction of cell cycle arrest in human HepG2 cells assessed as accumulation S phase at 7.5 nM incubated for 48 hrs by propidium iodide staining based flow cytometry analysis (reference value: 17.14 +/- 0.34%); format: functional
HepG2 [21] = assay: Induction of apoptosis in human HepG2 cells assessed as early apoptotic cells at 30 nM incubated for 48 hrs by Annexin-V/PI-staining based flow cytometry (reference value: 4.61 +/- 0.46%); format: functional
H22 [22] = assay: Antitumor activity against mouse H22 cells allografted in ICR mouse assessed as reduction in tumor volume growth rate at 20 mg/kg, iv administered qd for 21 days measured after 12 days; format: functional, organism-based; conditions: time 21.0 day
[23] = Metabolic stability in mouse plasma assessed as compound remaining at 40 uM measured after 0.5 hrs by LC-MS/MS analysis (reference value: 100%); format: ADME, cell-free
[24] = Toxicity in ICR mouse allografted with mouse H22 cells assessed as change in heart rate at 20 mg/kg, iv administered qd measured after 21 days; format: organism-based; conditions: in vivo, 504 h, time 21 day
Histone deacetylase 8 = molecular target: T2, Histone deacetylase 8 (Homo sapiens, UniProt Q9BY41); assay: Inhibition of HDAC8 in human HeLa cells using BOC-K(Ac)-AMC as substrate measured after 30 mins by fluorescence based microtiter plate reader assay; format: cell-based
T2 sequence (Q9BY41 whole entry): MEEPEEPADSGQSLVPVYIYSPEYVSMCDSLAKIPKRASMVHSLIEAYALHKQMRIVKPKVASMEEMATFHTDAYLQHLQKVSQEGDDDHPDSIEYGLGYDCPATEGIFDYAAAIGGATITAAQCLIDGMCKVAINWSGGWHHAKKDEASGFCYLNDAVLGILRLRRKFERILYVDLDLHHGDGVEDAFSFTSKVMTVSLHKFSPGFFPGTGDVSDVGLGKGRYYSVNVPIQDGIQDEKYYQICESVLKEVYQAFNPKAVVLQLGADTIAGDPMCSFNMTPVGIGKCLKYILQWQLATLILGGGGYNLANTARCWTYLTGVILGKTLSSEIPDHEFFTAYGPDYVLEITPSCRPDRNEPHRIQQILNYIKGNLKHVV

MDA-MB-231 [25] = assay: Inhibition of cell invasion in human MDA-MB-231 cells measured after 48 hrs by crystal violet staining based transwell assay; format: functional; conditions: dose 7.5-30 nM, DDE = dose-dependent effect

inhibition (Tubulin (Homo sapiens) [3]): 63.4%
pIC50 (HepG2 [5]): 7.54
Activity (Tubulin (Homo sapiens) [6]): Active
Fh at 1 h, 1 µM [7]: 51.6%
pIC50 (Histone deacetylase 3): 6.62
Stability [11]: 16%
pIC50 (Histone deacetylase 2): 6.87
CLH [13]: 1.45 mL/min
inhibition (Histone deacetylase 1): Active
Stability [23]: 59%
pIC50 (Histone deacetylase 8): 5.67
Structure (SMILES): COc1ccc(CNC(=O)c2cc(F)ccc2N2CCOCC2)cc1/C=C/C(=O)NO
Activity (PC-3 [1]): 49.39%
Activity (HepG2 [2]): Dde
Activity (HepG2 [4]): 1.13%
inhibition (MDA-MB-231 [8]): Dde
Activity (HepG2 [9]): 6.89%
Activity [10]: Non-Toxic
Activity (PC-3 [12]): 76.73%
Activity (HepG2 [14]): 33.09%
pIC50 (H22 [15]): 7.59
Activity (H22 [16]): 83%
Activity [17]: Non-Toxic
Activity (H22 [18]): Active
Activity (HepG2 [19]): 6.36%
Activity (HepG2 [20]): 20.81%
Activity (HepG2 [21]): 34.86%
Activity (H22 [22]): Active
Activity [24]: Non-Toxic
inhibition (MDA-MB-231 [25]): Dde
